Values of other authors as cited in patent US12544334B2, “Metabolisable pH sensitive polymersomes” (UCL BUSINESS LTD, priority 2018, dated 2026).

Details: imidazole-bearing acid before conjugation to the cysteine N-terminus

Structure (SMILES) | pKa
O=C(O)Cc1c[nH]cn1 [4-imidazolacetic acid] | 6.6
O=C(O)Cn1ccnc1 [1H-imidazole-1-acetic acid] | 6.8
